The source of these data is ChEMBL document CHEMBL4325874, “Design and synthesis of histamine H3/H4 receptor ligands with a cyclopropane scaffold” (Bioorg Med Chem Lett, 2018).

One assay concerns the target Histamine H3 receptor (Homo sapiens, UniProt Q9Y5N1). The assay can be described thus: Displacement of [3H]Nalpha-methylhistamine from human recombinant histamine H3 receptor expressed in CHO cell membranes after 30 mins by liquid scintillation analysis.
The target of another assay is Histamine H4 receptor (Homo sapiens, UniProt Q9H3N8). The assay can be described thus: Displacement of [3H]histamine from human recombinant histamine H4 receptor expressed in CHO cell membranes after 30 mins by liquid scintillation analysis. In general terms: In a radioligand displacement assay an active substance lowers the binding of a labelled ligand.
Sequence of Histamine H4 receptor (Q9H3N8 whole entry): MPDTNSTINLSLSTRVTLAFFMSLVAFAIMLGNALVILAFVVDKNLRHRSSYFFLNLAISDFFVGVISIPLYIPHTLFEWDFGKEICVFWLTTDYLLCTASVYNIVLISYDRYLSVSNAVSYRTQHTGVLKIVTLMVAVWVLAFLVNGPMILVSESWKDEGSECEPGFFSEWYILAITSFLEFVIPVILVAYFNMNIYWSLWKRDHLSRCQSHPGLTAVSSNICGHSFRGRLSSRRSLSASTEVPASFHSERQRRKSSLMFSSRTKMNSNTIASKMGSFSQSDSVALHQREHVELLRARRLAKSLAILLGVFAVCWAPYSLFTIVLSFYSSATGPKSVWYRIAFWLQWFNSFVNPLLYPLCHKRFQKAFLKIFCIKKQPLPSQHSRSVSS

Sequence of Histamine H3 receptor (Q9Y5N1 whole entry): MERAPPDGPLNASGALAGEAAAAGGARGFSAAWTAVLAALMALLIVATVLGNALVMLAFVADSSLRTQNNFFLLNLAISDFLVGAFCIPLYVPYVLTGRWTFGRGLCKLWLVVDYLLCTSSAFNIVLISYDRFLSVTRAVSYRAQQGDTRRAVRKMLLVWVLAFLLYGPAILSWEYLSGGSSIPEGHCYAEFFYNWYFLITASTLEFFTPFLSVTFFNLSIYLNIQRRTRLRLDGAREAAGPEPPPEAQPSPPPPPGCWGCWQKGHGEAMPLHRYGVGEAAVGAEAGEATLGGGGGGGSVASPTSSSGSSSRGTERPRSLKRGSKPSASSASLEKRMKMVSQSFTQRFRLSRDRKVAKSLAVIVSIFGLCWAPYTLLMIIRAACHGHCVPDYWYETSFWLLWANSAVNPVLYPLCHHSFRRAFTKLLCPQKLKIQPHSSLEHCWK

The Ki is the dissociation constant of the complex between target and ligand, obtained from inhibition or displacement. In the case of `Clc1ccc(CNCC[C@@H]2C[C@H]2c2nc3cc(Cl)ccc3[nH]2)cc1`, the Ki on Histamine H3 receptor and on Histamine H4 receptor was > 1000 nM each time.
`Clc1ccc(CNC[C@@H]2C[C@H]2c2nc3cc(Cl)ccc3[nH]2)cc1`: the Ki on Histamine H3 receptor and on Histamine H4 receptor was > 1000 nM each time.
On to `CN1CCN([C@@H]2C[C@@H]2CNCc2ccc(Cl)cc2)CC1`, for which the Ki on Histamine H3 receptor and on Histamine H4 receptor was > 1000 nM in each case.
Consider `Clc1ccc(CNC[C@@H]2C[C@@H]2c2cc3cc(Cl)ccc3[nH]2)cc1`, for which the Ki on Histamine H3 receptor and at Histamine H4 receptor was > 1000 nM each time.
As to `CN1CCN([C@@H]2C[C@@H]2CCNCc2ccc(Cl)cc2)CC1`, the Ki on Histamine H3 receptor and at Histamine H4 receptor was > 1000 nM throughout.
Consider `Clc1ccc(CNCC[C@H]2C[C@H]2N2CCNCC2)cc1`, for which the Ki at Histamine H3 receptor and on Histamine H4 receptor was > 1000 nM in each case.
For the molecule `c1ccc2[nH]c(C[C@@H]3C[C@H]3c3c[nH]cn3)nc2c1`, the results for the Ki at Histamine H3 receptor and at Histamine H4 receptor were 186 nM and 295 nM, respectively.
Take `Clc1ccc(CNC[C@H]2C[C@H]2N2CCNCC2)cc1`: the Ki on Histamine H3 receptor and at Histamine H4 receptor was > 1000 nM each time.
As to `Clc1ccc(CNCC[C@@H]2C[C@@H]2c2cc3cc(Cl)ccc3[nH]2)cc1`, the Ki on Histamine H3 receptor and at Histamine H4 receptor was > 1000 nM throughout.
Regarding `c1ccc2[nH]c(CNCC[C@@H]3C[C@H]3c3c[nH]cn3)nc2c1`, the Ki at Histamine H3 receptor worked out at 52 nM; at Histamine H4 receptor, 166 nM.
